According to publication PMC9230201, “Sustained Consumption of a Decaffeinated Green Coffee Nutraceutical Has Limited Effects on Phenolic Metabolism and Bioavailability in Overweight/Obese Subjects” (Nutrients, 2022):

Assays:
[1] = Plasma pharmacokinetics of phenolic metabolites after intake of the GCPE nutraceutical (LC-MS-QToF); conditions: for Cmax: mean ± SEM, n = 9; for AUC(0-t) / Tmax: 300 mg hydroxycinnamic acids; for AUC(0-t): AUC0–24h; for Tmax: Tmax (h) or Range
[2] = Urinary excretion of phenolic metabolites after intake of the GCPE nutraceutical; conditions: for Urinary excretion / Cumulative urinary excretion, Total 0–24 h: urine; for Cumulative urinary excretion, Total 0–24 h: mean ± SEM, n = 9
Protocol: Participants attended the Human Nutrition Unit (HNU) at the Institute of Food Science, Technology and Nutrition (ICTAN-CSIC) on two consecutive days at the beginning of the intervention (week 0) and also on two consecutive days at the end of the study, after consuming daily two doses of the GCPE nutraceutical, providing 600 mg/d phenols, during two months (week 8). […] A licensed health care professional placed an intravenous catheter in the subjects′ nondominant arm and collected a fasting blood sample (baseline, 0 h). Then, subjects drank the soluble GCPE nutraceutical dissolved in 200 mL of water. […] On the sampling days, volunteers remained at the HNU, where a (poly)phenol-free diet was provided. Half an hour after consuming the nutraceutical, volunteers ate a breakfast consisting of ham, cheese, white bread, and a yogurt. Lunch (paella, bread, and yogurt) and an afternoon snack (muffin and yogurt) were eaten 5 and 9 h, respectively, after consuming the nutraceutical. Water and isotonic beverages were freely available. […] The same protocol was followed during visits at the end of the 8-week intervention. On each occasion, two days before each visit to the HNU, subjects consumed a low (poly)phenol diet free of foods containing hydroxycinnamates such as coffee, herbal teas, red wine, artichokes, whole grain cereals, vegetables, fruits and fruit juices, and dried fruits. Only banana, watermelon, cantaloupes, and potatoes were allowed.
Blood samples were immediately centrifuged (10 min, 3000 rpm, 4 °C) to obtain plasma. […] All biological samples were stored at −80 °C until analysis.
To extract plasma metabolites, 10 µL of 50% (v/v) aqueous formic acid, and 900 µL cold acetonitrile containing 50 µL of 10% (w/v) ascorbic acid were added to 400 µL defrosted plasma. Samples were vortexed and centrifuged (14,000 rpm, 10 min, 4 °C), repeating the extraction and combining the two supernatants, which were reduced to dryness under nitrogen [13]. Dried samples were resuspended in 150 µL of 0.1% aqueous formic acid (containing 10% acetonitrile acidified with 0.1% formic acid), centrifuged (15 min, 14,000 rpm, 4 °C), and the supernatant collected. Urine samples were diluted 1:1 with Milli-Q water and centrifuged (14,000 rpm, 20 min, 4 °C) prior to analysis. Phosphate-buffered saline (3 mL) was added to a representative 300 mg sample of thawed feces, homogenized in an ultrasound bath during 10 min, centrifuged (14,000 rpm, 20 min, 4 °C), and the supernatants collected.
Mobile phase A was 0.1% formic acid in Milli-Q water, and mobile phase B was acetonitrile containing 0.1% formic acid at a 0.3 mL/min flow rate. […] Metabolites were identified based on their retention time using authentic standards when possible. […] Urine concentration of excreted metabolites was normalized to the total volume excreted in each studied interval.
Plasma (30 µL), urine (5 µL) and fecal extracts (5 µL) were filtered through 0.45 µm
cellulose-acetate membrane filters and injected into an Agilent 1200 series LC system
ESI-Jet Stream Technology (Agilent Technologies). A reverse-phase Ascentis Express
C18 (15 cm x 3 mm, 2.7 µm) column (Sigma-Aldrich Quimica, Madrid), preceded by a
phase A was 0.1% formic acid in Milli-Q water, and mobile phase B was acetonitrile
containing 0.1% formic acid at a 0.3 mL/min flow rate. The gradient started with 10% B
at 0 min, 30% B at 10 min, 40% B at 15 min, reaching 50% B at 20 min. The starting
gradient was then re-established in 2 min and maintained for 8 min to re-equilibrate the

[3] = week 0, GCPE nutraceutical with 300 mg hydroxycinnamic acids
[4] = week 0, first peak where biphasic
[5] = week 8, GCPE nutraceutical with 300 mg hydroxycinnamic acids
[6] = week 8, first peak where biphasic
[7] = human, oral, week 0, first peak where biphasic
[8] = human, oral, week 8, first peak where biphasic
[9] = human, oral, 300 mg, Cmax, week 0, GCPE nutraceutical with 300 mg hydroxycinnamic acids
[10] = human, oral, 300 mg, Cmax, week 8, GCPE nutraceutical with 300 mg hydroxycinnamic acids

Compound | AUC0–24h ([1]; week 0) [µM/min] | Cmax [1, 3] [nM] | Tmax (h) or Range [1, 4] [h] | AUC0–24h ([1]; week 8) [µM/min] | Cmax [1, 5] [nM] | Tmax (h) or Range [1, 6] [h] | Cumulative urinary excretion, Total 0–24 h ([2]; week 0) [µmol] | Cumulative urinary excretion, Total 0–24 h ([2]; week 8) [µmol] | Amount excreted in urine, 0- 3 h ([2]; week 0, interval 0–3 h) [µmol] | Amount excreted in urine, 3-6 h ([2]; week 0, interval 3–6 h) [µmol] | Amount excreted in urine, 6-9 h ([2]; week 0, interval 6–9 h) [µmol] | Amount excreted in urine, 9-11 h ([2]; week 0, interval 9–11 h) [µmol] | Amount excreted in urine, 11-24 h ([2]; week 0, interval 11–24 h) [µmol] | Amount excreted in urine, 0- 3 h ([2]; week 8, interval 0–3 h) [µmol] | Amount excreted in urine, 3-6 h ([2]; week 8, interval 3–6 h) [µmol] | Amount excreted in urine, 6-9 h ([2]; week 8, interval 6–9 h) [µmol] | Amount excreted in urine, 9-11 h ([2]; week 8, interval 9–11 h) [µmol] | Amount excreted in urine, 11-24 h ([2]; week 8, interval 11–24 h) [µmol] | other results
O=C(O)CCc1ccc(OS(=O)(=O)O)c(O)c1 [DHCA-4′-sulfate, 3-(3′-Hydroxyphenyl)propanoic acid-4′-sulfate] | 2.3 ± 0.5 | 340 ± 90 | 7.9 ± 0.5 | 2.1 ± 0.4 | 330 ± 70 | 8.4 ± 0.6 | 8 ± 2 | 10 ± 2 | 0.4 ± 0.1 | 0.2 ± 0.04 | 0.5 ± 0.2 | 0.5 ± 0.2 | 2.6 ± 0.8 | 0.6 ± 0.2 | 0.2 ± 0.04 | 0.5 ± 0.1 | 0.6 ± 0.2 | 1.7 ± 0.5 | Urinary excretion ([2]; week 0): 8 µmol/24 h; Urinary excretion ([2]; week 8): 10 µmol/24 h
COc1cc(CCC(=O)O)ccc1O[C@@H]1O[C@H](C(=O)O)[C@@H](O)[C@H](O)[C@H]1O [DHFA-4′-glucuronide, 3-(3′-Methoxyphenyl)propanoic acid-4′-glucuronide] | 1.1 ± 0.3 | 130 ± 30 | 8.7 ± 0.6 | 0.8 ± 0.1 | 120 ± 20 | 8.7 ± 0.6 | 5 ± 1 | 7 ± 1 | 0.15 ± 0.05 | 0.16 ± 0.05 | 1 ± 0.4 | 0.8 ± 0.1 | 1.2 ± 0.2 | 0.21 ± 0.06 | 0.34 ± 0.09 | 1 ± 0.2 | 0.8 ± 0.2 | 1 ± 0.3 | Urinary excretion ([2]; week 0): 5 µmol/24 h; Urinary excretion ([2]; week 8): 7 µmol/24 h
COc1cc(CCC(=O)O)ccc1OS(=O)(=O)O [DHFA-4′-sulfate, 3-(3′-Methoxyphenyl)propanoic acid-4′-sulfate] | 1.5 ± 0.7 | 190 ± 80 | 8.1 ± 0.4 | 1.1 ± 0.3 | 170 ± 50 | 8.4 ± 0.6 | 10 ± 2 | 9 ± 2 | 0.5 ± 0.1 | 0.5 ± 0.1 | 3.4 ± 1.2 | 2.1 ± 0.5 | 3.5 ± 0.8 | 0.6 ± 0.1 | 0.8 ± 0.2 | 2 ± 1 | 3 ± 1 | 2.6 ± 0.8 | 
COc1ccc(CCC(=O)O)cc1O [DHiFA, 3-(3′-Hydroxy-4′-methoxyphenyl) propanoic acid] |  |  |  |  |  |  | 3.7 ± 0.4 | 3.2 ± 0.2 | 0.26 ± 0.04 | 0.25 ± 0.08 | 1.2 ± 0.3 | 0.8 ± 0.2 | 1.2 ± 0.09 | 0.32 ± 0.07 | 0.38 ± 0.08 | 1 ± 0.2 | 0.7 ± 0.2 | 1 ± 0.2 | AUC(0-t) ([1]; human, oral, week 0): 0.5 ± 0.2 µM·h; AUC(0-t) ([1]; human, oral, week 8): 0.6 ± 0.2 µM·h; Tmax [1, 7]: 7 ± 1 h; Tmax [1, 8]: 7 ± 1 h; Cmax [1, 9]: 70 ± 20 nM; Cmax [1, 10]: 70 ± 20 nM
COc1ccc(CCC(=O)O)cc1O[C@@H]1O[C@H](C(=O)O)[C@@H](O)[C@H](O)[C@H]1O [DHiFA-3′-glucuronide, 3-(4′-Methoxyphenyl)propanoic acid-3′-glucuronide] | 0.6 ± 0.4 | 60 ± 20 | 9.0 ± 0.6 | 0.7 ± 0.4 | 70 ± 30 | 8.1 ± 0.8 | 2.9 ± 0.5 | 3.1 ± 0.7 | 0.12 ± 0.04 | 0.16 ± 0.06 | 1.1 ± 0.4 | 0.7 ± 0.2 | 0.8 ± 0.2 | 0.3 ± 0.1 | 0.28 ± 0.07 | 1.1 ± 0.2 | 0.8 ± 0.4 | 0.6 ± 0.3 | 
COc1ccc(CCC(=O)O)cc1OS(=O)(=O)O [DHiFA-3′-sulfate, 3-(4′-Methoxyphenyl)propanoic acid-3′-sulfate] | 0.3 ± 0.1 | 40 ± 10 | 7 ± 1 | 0.8 ± 0.5 | 110 ± 60 | 11.6 ± 3.2 | 3 ± 1 | 2.6 ± 0.8 | 0.18 ± 0.06 | 0.1 ± 0.04 | 0.4 ± 0.1 | 0.2 ± 0.1 | 1.9 ± 0.8 | 0.14 ± 0.04 | 0.09 ± 0.03 | 0.24 ± 0.09 | 0.11 ± 0.03 | 2 ± 0.7 | 
COc1ccc(CCC(=O)O)cc1OC [Dihydrodimethoxycinnamic acid, 3-(3′,4′-Dimethoxyphenyl)propanoic acid] |  |  |  |  |  |  | 0.7 ± 0.2 | 0.63 ± 0.08 | 0.08 ± 0.02 | 0.08 ± 0.01 | 0.2 ± 0.1 | 0.09 ± 0.02 | 0.27 ± 0.06 | 0.08 ± 0.01 | 0.06 ± 0.01 | 0.12 ± 0.03 | 0.12 ± 0.04 | 0.25 ± 0.05 | AUC(0-t) ([1]; human, oral, week 0): 1.2 ± 0.1 µM·h; AUC(0-t) ([1]; human, oral, week 8): 1.3 ± 0.1 µM·h; Tmax [1, 7]: 4 ± 1 h; Tmax [1, 8]: 10 ± 4 h; Cmax [1, 9]: 110 ± 20 nM; Cmax [1, 10]: 120 ± 10 nM
COc1cc(C=CC(=O)O)ccc1OC1OC(C(=O)O)C(O)C(O)C1O (centres unmarked) [FA-4′-glucuronide, 3′-Methoxycinnamic acid-4′-glucuronide] | 0.06 ± 0.01 | 16 ± 9 | 1.2 ± 0.3 | 0.063 ± 0.02 | 9 ± 2 | 1.2 ± 0.3 | 3.4 ± 0.4 | 3.7 ± 0.5 | 0.5 ± 0.1 | 0.42 ± 0.07 | 0.7 ± 0.2 | 0.44 ± 0.09 | 1.3 ± 0.3 | 0.6 ± 0.1 | 0.37 ± 0.05 | 0.8 ± 0.1 | 0.8 ± 0.3 | 1.3 ± 0.2 | Tmax, second peak ([1]; week 0, biphasic profile): 4.7 ± 0.3 h
